Laboratory results published in patent publication US11524011B2, “H3K27 demethylase inhibitors in pediatric and juvenile osteoporosis” (THE JOHNS HOPKINS UNIVERSITY, priority 2017, dated 2022).
Entries after “also recorded” stand apart in the source; their conditions may differ.

Legend:
[1] = system: BALB/c mice; experiment: GSK-J4 in glucocorticoid (MPS)-treated young BALB/c mice: body weight, tail length, bone loss (μCT), angiogenesis and osteogenesis
Experimental: FIGS. 10A-10B. […] Body weight (10A) and Tail length (10B) were monitored at 2, 3, and 4 weeks after treatment. FIGS. 11A-11F. […] (11A) Representative μCT images of distal femur. Quantitative analyses of Femur length (11B), Trabecular bone volume fraction (BV/TV) (11C), trabecular number (Tb.N) (11D), trabecular thickness (Tb.Th) (11E), and trabecular separation (Tb.Sp) (11F). […] FIGS. 12A-12F. […] (12A-B) Double-immunofluorescence staining of femur sections was performed using antibodies against nestin (green) and H3K27me3 (red) (12A). Quantification of the percentage of nestin^+ cells that express H3K27me3 in the primary spongiosa (12B). Immunofluorescence staining of femur sections using antibody against osterix (Osx) (12C). Quantitative analysis of Osx^+ cells in the primary spongiosa (12D). Double-immunofluorescence staining of femur sections was performed using antibodies against CD31 (green) and endomucin (Emcn) (red) (12E). […] DAPI stains nuclei blue. Seven mice per group. GP, growth plate. PS, primary spongiosa. Mice femora were dissected, fixed overnight in 70% ethanol, and analyzed by high-resolution μCT (Skyscan 1172, Bruker MicroCT, Kontich, Belgium). We used NRecon image reconstruction software, version 1.6, (Bruker MicroCT), CTAn data-analysis software, version 1.9 (Bruker MicroCT), and CTVol 3-dimensional model visualization software, version 2.0, (Bruker MicroCT) to analyze parameters of the trabecular bone in the metaphysis and cortical bone in the mid-diaphysis. The scanner was set at 50 kVp, […]. Cross-sectional images of the distal femur were used to perform 3-dimensional histomorphometric analysis of trabecular bone. The sample area selected for analyses was a 2-mm length of the metaphyseal secondary spongiosa, originating 1.0 mm below the epiphyseal growth plate and extending caudally. Cortical morphometry was analyzed within a 600-μm long section at mid-diaphysis of the femur and included measurements of average thickness and cross-sectional area. […] Nuclei were counterstained with DAPI (Sigma).

[2] = system: childhood cancer diffuse intrinsic pontine glioma; conditions: preclinical studies; cited from earlier work
[3] = system: BALB/c mice; conditions: MPS daily for 2 weeks; compared to controls
Experimental: Four-week-old BALB/c mice were treated with methylprednisolone (MPS) or vehicle daily for 2 weeks. (8A) A schematic illustration of the steps to isolate CD144^+ vascular endothelial cells from femoral metaphyses. […] (8D-8G) Quantitative RT-PCR analysis of ki67 (8D) p16^INK4a (8E), p53 (8F), and p21^CIP1 (8G) expression in the sorted CD144^+ cells. n=3, Data are represented as mean±s.e.m. *p<0.01 as determined by Student's t-tests.

[4] = system: Nestin-GFP mice; experiment: Prednisolone treatment of early pubertal Nestin-GFP mice: cellular senescence / nestin expression in femoral primary spongiosa; type: in vivo, mouse
Experimental: (§1) FIGS. 4A-4L. Cellular Senescence in Primary Spongiosa of Long Bone is Decelerated in Growth Hormone (GH)-Treated Mice and Accelerated in Prednisolone-Treated Mice. (4A-4F) Four week-old Nestin-GFP mice were treated with recombinant mouse-GH (5 mg/kg·B·W.) or Vehicle by daily intraperitoneal injection for 4 weeks. Immunofluorescence staining of femur sections were performed using antibodies against GFP (green) (4A) or Ki67 (red) (4E). Images in upper panels in (4A) and (4E) are lower power with boxes outlining the area of higher power in lower panels. Quantification of the number of GFP+ (4B) or Ki67+ (4F) cells in femoral primary spongiosa. […] (4G-4L) Two-week-old Nestin-GFP mice were treated with prednisolone (10 mg/m^2/day) or Vehicle by daily intraperitoneal injection for 2 weeks. Immunofluorescence staining of femur sections were performed using antibodies against GFP (green) (4G) or Ki67 (red) (4K). Images in upper panels in (4G) and (4K) are lower power with boxes outlining the area of higher power in lower panels. Quantification of the number of GFP+ (4H) or Ki67+ (4L) cells in femoral primary spongiosa. […] Five mice per group. […] GP, growth plate.
(§2) For flow cytometric analysis and sorting of CD45-GFP− and CD45-GFP+ mesenchymal progenitor cells (MPCs) from femoral metaphysis, we dissected the femora free of soft tissues from Nestin-GFP mice. The epiphysis was removed and only the 3-mm-long metaphysis regions were processed. The bone was then digested with a protease solution (2 mg/mL collagenase A and 2.5 mg/mL trypsin in phosphate buffered saline [PBS]) for 20 minutes to remove the periosteum and periosteal progenitors (step I). […]
One of the major causes of secondary osteoporosis in children is the use of glucocorticoids for treatment of underlying chronic medical problems, such as autoimmune or inflammatory disorders. […] We thus assessed whether glucocorticoid-treated early pubertal mice display premature cellular senescence in primary spongiosa by injecting mice daily with prednisolone from age 2 weeks to 4 weeks.

[5] = system: Nestin-GFP mice; experiment: Growth hormone treatment of pubertal Nestin-GFP mice: cellular senescence / nestin expression in femoral primary spongiosa; type: in vivo, mouse
Experimental: as §1
as §2, with “I). The bones were cut into small pieces and digested in the protease solution for another 1 hour (C, step II).” for “I).”
We tested whether the progression of the cellular senescence in primary spongiosa of long bone, as indicated by loss of nestin expression, is associated with bone growth/accrual. […] We assessed changes in nestin expression in the femoral primary spongiosa in pubertal mice after administration of recombinant GH. […]

[6] = MPS plus GSK-J4 10 mg/kg b.w. daily for 4 weeks, compared to MPS alone and to controls
[7] = summary statement, glucocorticoid-treated mice

For `CCOC(=O)CCNc1cc(N2CCc3ccccc3CC2)nc(-c2ccccn2)n1` [GSK-J4, N-[2-(2-Pyridinyl)-6-(1,2,4,5-tetrahydro-3H-3-benzazepin-3-yl)-4-pyrimidinyl]-β-alanine ethyl ester], the “bone loss phenotype induced by MPS (μCT of distal femur: femur length, BV/TV, Tb.N, Tb.Th, Tb.Sp)” value ([1]; MPS plus GSK-J4 10 mg/kg b.w. daily for 4 weeks, 10 mg/kg) was “at least partially reversed; also recorded: rescued”, the “angiogenesis in femoral primary spongiosa (CD31 / Emcn fluorescence intensities)” value [1, 6] was “greatly improve” and the “osteogenesis in femoral primary spongiosa (Osx+ cells)” value [1, 6] was “greatly improve”. The “MPS-induced shortening of tail length” value ([1]; concurrent treatment, MPS plus GSK-J4 10 mg/kg b.w. daily, 2, 3 and 4 weeks) was “abolished”, the glucocorticoid-induced growth retardation ([1]; summary statement) was “rescued” and the H3K27 methylation [1, 7] was “elevated”. The “early onset cellular senescence” value [1, 7] was “blocked” and the “growth of childhood cancer diffuse intrinsic pontine glioma” value [2] was “effectively inhibit”.

For `C[C@H]1C[C@@H]2[C@H]([C@@H](O)C[C@@]3(C)[C@H]2CC[C@]3(O)C(=O)CO)[C@@]2(C)C=CC(=O)C=C12` [MPS, methylprednisolone], the tail length ([1]; MPS alone daily, 2, 3 and 4 weeks, compared with controls) was “significantly shortened”, the body weight ([1]; MPS alone daily, monitored at 2, 3 and 4 weeks after treatment) was “no significant effect” and the “ki67 expression in sorted CD144+ cells (quantitative RT-PCR)” value [3] was “less”. For the same molecule, the “p16^INK4a expression in sorted CD144+ cells (quantitative RT-PCR)” value [3] was “increased”, the “p21^CIP1 expression in sorted CD144+ cells (quantitative RT-PCR)” value [3] was “increased” and the “p53 expression in sorted CD144+ cells (quantitative RT-PCR)” value [3] was “increased”.

With `C[C@]12C=CC(=O)C=C1CC[C@@H]1[C@@H]2[C@@H](O)C[C@@]2(C)[C@H]1CC[C@]2(O)C(=O)CO` [prednisolone] the “senescence of the cells in primary spongiosa” value ([4]; mice treated with prednisolone) was “accelerated”, the “Ki67+ proliferative cells in femoral primary spongiosa” value ([4]; prednisolone 10 mg/m^2/day daily i.p. for 2 weeks, vs vehicle) was “reduced” and the “number of Nestin-GFP+ cells in femoral primary spongiosa (immunofluorescence staining and flow cytometry)” value ([4]; prednisolone 10 mg/m^2/day daily i.p. from age 2 weeks to 4 weeks, relative to vehicle-treated mice) was “significantly reduced”.

B1: GH: recombinant mouse growth hormone (protein, UniProt P06880 27-216, looked up)
Somatotropin: FPAMPLSSLFSNAVLRAQHLHQLAADTYKEFERAYIPEGQRYSIQNAQAAFCFSETIPAPTGKEEAQQRTDMELLRFSLLLIQSWLGPVQFLSRIFTNSLMFGTSDRVYEKLKDLEEGIQALMQELEDGSPRVGQILKQTYDKFDANMRSDDALLKNYGLLSCFKKDLHKAETYLRVMKCRRFVESSCAF
For B1, the “percentage of Ki67+ proliferative cells in primary spongiosa” value ([5]; GH 5 mg/kg daily i.p. for 4 weeks, relative to vehicle-treated mice) was “higher”, the “senescence of the cells in primary spongiosa” value ([5]; mice treated with growth hormone) was “reduced” and the “Nestin-GFP+ cells in primary spongiosa (immunofluorescence staining)” value ([5]; recombinant mouse-GH 5 mg/kg B.W. daily intraperitoneal injection for 4 weeks from 4 weeks of age, vs vehicle-treated mice) was “significantly increased”.
